Experimental data: patent publication US8318504B2, “MRP2 efflux pathway prognostic method” (priority 2009, dated 2012)

Tests used:
[1] = biological target: T1, ABCC2 (Homo sapiens, UniProt Q92887); experiment: CLF inhibition of DNP-SG transport into ABCC2 containing Sf21 membrane vesicles; assay type: biochemical; conditions: ATP-dependent transport, read-out: Half maximal inhibition of DNP-SG transport with CLF
T1 construct: made in house; host or cells: Sf21 insect cells, baculovirus; plasma membrane vesicles
T1 sequence (Q92887 whole entry): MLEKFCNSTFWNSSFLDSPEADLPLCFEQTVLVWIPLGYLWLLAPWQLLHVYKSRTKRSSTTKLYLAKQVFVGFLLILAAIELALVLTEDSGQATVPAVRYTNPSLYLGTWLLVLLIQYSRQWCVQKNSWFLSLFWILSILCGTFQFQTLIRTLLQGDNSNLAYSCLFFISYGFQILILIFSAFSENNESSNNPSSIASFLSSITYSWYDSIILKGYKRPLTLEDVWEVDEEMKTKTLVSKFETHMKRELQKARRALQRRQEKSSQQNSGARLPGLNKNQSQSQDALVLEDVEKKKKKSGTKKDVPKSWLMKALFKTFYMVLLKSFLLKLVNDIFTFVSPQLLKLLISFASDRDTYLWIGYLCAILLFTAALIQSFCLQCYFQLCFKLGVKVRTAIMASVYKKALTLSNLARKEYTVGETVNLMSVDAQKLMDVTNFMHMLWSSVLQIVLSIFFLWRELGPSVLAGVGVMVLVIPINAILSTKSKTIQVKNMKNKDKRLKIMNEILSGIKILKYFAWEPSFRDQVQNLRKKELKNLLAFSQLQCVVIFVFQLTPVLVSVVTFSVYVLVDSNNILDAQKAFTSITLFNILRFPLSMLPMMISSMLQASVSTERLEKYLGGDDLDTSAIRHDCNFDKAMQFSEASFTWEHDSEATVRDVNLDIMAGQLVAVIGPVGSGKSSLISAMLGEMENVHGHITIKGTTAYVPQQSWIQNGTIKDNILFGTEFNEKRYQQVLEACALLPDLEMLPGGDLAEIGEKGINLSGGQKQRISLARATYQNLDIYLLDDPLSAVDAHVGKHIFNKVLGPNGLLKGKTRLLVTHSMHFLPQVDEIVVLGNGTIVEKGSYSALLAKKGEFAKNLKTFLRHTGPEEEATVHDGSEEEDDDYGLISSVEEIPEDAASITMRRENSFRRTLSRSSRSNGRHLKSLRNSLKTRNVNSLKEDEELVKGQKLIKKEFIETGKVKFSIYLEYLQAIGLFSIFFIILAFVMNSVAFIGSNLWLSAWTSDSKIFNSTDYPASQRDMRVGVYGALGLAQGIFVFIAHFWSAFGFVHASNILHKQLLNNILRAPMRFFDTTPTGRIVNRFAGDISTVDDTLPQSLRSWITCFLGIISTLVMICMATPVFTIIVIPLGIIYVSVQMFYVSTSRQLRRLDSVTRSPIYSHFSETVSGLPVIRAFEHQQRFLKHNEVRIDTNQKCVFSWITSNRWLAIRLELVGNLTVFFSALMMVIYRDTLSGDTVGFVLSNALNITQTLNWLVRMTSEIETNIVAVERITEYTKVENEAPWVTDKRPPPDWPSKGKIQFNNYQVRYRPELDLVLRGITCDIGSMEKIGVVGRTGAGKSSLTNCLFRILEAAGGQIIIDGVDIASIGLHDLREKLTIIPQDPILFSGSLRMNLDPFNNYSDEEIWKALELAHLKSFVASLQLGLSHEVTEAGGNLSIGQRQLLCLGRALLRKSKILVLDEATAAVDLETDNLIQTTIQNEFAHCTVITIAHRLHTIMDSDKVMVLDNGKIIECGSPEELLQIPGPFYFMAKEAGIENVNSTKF
Experimental: FIGS. 5A and 5B show CLF inhibition of DNP-SG and TC transport into ABCC2 (A) and ABCB11 (B) protein containing Sf21 membrane vesicles respectively. The values are expressed as a percentage of maximal ATP-dependent transport. Significance was tested using two-sided Student's t-test: *P<0.05 for transport in the presence vs. absence of inhibitor.
The production of recombinant baculovirus was as described by de Waart et al. [Liver Int 2006 April; 26(3):362-368]. ABCC3 and ABCG2-recombinant baculovirus were a kind gift from Borst [Breedveld P. et al., Cancer Res 2004 Aug. 15; 64(16):5804-5811 and Borst P. et al., J Biol Chem 2001 Dec. 7; 276(49):46400-46407.]. ABCB11-recombinant baculovirus was a kind gift from Thompson [Thompson R J et al., Gastroenterology 2002 November; 123(5):1649-1658]. Sf21 cells grown at 27° C. were infected with ABCB11, ABCC2, ABCC3 and ABCG2-cDNA containing baculovirus. Cells were harvested at 2-4 days after infection. […]
Transport studies with membrane vesicles were performed using the rapid filtration technique as described by Heijn M et al. [Am J Physiol 1992 January; 262(1 Pt 1):C104-C110]. Radiolabel was measured with a scintillation counter. […] Samples were pipetted in 96-well plates (Kartell, Noviglio, Italy) and the amount CLF quantitated by measurement of fluorescence at λexe 485 nm and λcm 520 nm using a NovoStar (BMG-labtech, Offenburg, Germany).

[2] = biological target: T2, OATP1B3 (Homo sapiens, UniProt Q9NPD5); experiment: Inhibition by CLF of TC transport in CHO cells expressing OATP1B3; assay type: cell-based; conditions: 0, 5 or 50 μmol/L CLF, 10 μmol/L TC
T2 construct: expressed in transfected cells; host or cells: CHO cells (stably transfected; Treiber et al. 2007)
T2 sequence (Q9NPD5 1-702): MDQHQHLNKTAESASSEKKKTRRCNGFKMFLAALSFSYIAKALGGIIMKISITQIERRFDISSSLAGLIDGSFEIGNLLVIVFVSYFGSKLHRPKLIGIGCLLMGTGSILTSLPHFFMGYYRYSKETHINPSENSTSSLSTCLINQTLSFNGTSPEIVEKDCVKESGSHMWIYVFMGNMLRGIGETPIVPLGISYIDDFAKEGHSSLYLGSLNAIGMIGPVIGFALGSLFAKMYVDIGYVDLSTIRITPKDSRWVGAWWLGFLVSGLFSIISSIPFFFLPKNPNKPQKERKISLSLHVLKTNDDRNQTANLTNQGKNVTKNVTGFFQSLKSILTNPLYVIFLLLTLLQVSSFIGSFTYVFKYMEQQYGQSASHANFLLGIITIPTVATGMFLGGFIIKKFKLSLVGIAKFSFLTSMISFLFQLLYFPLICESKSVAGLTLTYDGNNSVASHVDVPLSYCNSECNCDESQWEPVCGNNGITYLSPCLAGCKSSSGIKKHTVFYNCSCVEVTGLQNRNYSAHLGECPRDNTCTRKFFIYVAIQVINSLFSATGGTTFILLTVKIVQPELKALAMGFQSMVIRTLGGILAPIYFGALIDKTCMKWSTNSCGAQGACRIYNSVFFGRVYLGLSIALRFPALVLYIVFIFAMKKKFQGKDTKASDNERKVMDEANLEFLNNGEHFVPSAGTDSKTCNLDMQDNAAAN
Experimental: FIGS. 3A-3D relate to inhibition of transport activity of hepatocellular uptake transporters by CLF. CHO cells expressing NTCP, OATP1B1, OATP1B3 and OATP2B1 were incubated with 0, 5 or 50 μmol/L CLF and with the substrates, 2.5 μmol/L TC, 1 μmol/L estrone-3-sulfate, 10 μmol/L TC and 1 μmol/L estrone-3-sulfate, respectively. Data represent means±SD of triplicate determinations.
For all transport experiments, cells grown on 3 cm culture dishes were cultured for 24 hours in media supplemented with 5 mmol/L sodium-butyrate to increase expression levels of transfected transporters [Palermo D P et al., J Biotechnol 1991 June; 19(1):35-47]. • Transport experiments with uptake of radioactively labeled substrates: These experiments were performed as described by Huber R D et al. [Am J Physiol Cell Physiol 2007 February; 292(2):C795-C806]. • Transport experiments with uptake of CLF: Uptake was performed in the same buffers as for the radioactive substrates above. […] After complete solubilization, 1.5 ml was used to measure fluorescence in a Perkin-Elmer LS-5 luminescence-spectrometer set at λexe 486 nm (slit 10 nm) and λem 520 nm (slit 5 nm). Protein was determined with the bicinchoninic acid method using a kit from Interchim (Montfuçon, France). […]

## CC(CCC(=O)NC(CCCCNC(=S)Nc1ccc(-c2c3ccc(=O)cc-3oc3cc(O)ccc23)c(C(=O)O)c1)C(=O)O)C1CCC2C3C(O)CC4CC(O)CCC4(C)C3CC(O)C12C (centres unmarked) [CLF, cholyl lysyl fluorescein]
[1]
  IC50: ~1 µM
[2]
  inhibition of transport of TC mediated by OATP1B3 by CLF: inhibited by CLF in a dose-dependent manner
